The results in this text go back to PMC9481570, “A small molecule antagonist of SMN disrupts the interaction between SMN and RNAP II” (Nature Communications, 2022).

SMILES strings stand for the structures. Several values for one entry are separate records, joined by “and”; a condition that tells them apart may be missing. Equal entries are not always repeated.

What all share (test): Affinity-purification and mass spectrometry (AP-MS) chemical proteomics, all proteins;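 on Difference: 200 µM free competitor with 20 µM biotin probe overnight in lysate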
Holding throughout (type): binding

Assay [1] concerns the target T1, proteins displaced from immobilized biotin-Cmpd 1 pulldowns (U2OS cell lysate) (Homo sapiens, UniProt Q8NBJ5).
T1 construct: endogenous in cells; host or cells: U2OS
To be noted: GN=COLGALT1 (Q8NBJ5). The protocol:
(§1) The samples for AP-MS were prepared following pulldown procedure as previously described with minor modifications. Briefly, U2OS cells were lysed in RIPA buffer and the cell lysate was equally divided into two groups: (1) DMSO group (control group): the cell lysate was incubated with 20 μM biotin-labeled compound 1; (2) Cpmd 1 group (sample group): the cell lysate was incubated with 20 μM biotin-labeled compound 1 and 200 μM free compound 1. Each group contains three biological replicates. They were incubated overnight at 4 °C, then 30 μL streptavidin beads (Thermo Fisher, 20353) was added and incubated at 4 °C for 1 h. The beads were then washed with RIPA buffer for 3 times, 10 min/time.
(§2) Beads were rinsed twice with 50 mM TEAB, pH 7.55, before eluting proteins with 25 μL of 5% SDS, 50 mM TEAB, pH 7.55. The sample was then centrifuged at 17,000 × g for 10 min to remove any debris. Proteins were reduced with 20 mM TCEP (Thermo Fisher, 77720) and incubated at 65 °C for 30 min. The sample was cooled to room temperature and 1 μL of 0.5 M iodoacetamide acid was added and allowed to react for 20 min in dark. Phosphoric acid (12%, 2.75 μL) was added to the protein solution, followed by adding 165 μL of binding buffer (90% methanol, 100 mM TEAB, pH 7.1). The resulting solution was added to S-Trap spin column (protifi.com) and passed through the column using a bench top centrifuge (30 s spin at 4000 × g). The spin column was washed with 400 μL of binding buffer and centrifuged. This step was repeated two more times. Then trypsin was added to the protein mixture at a mass ratio of 1:25 in 50 mM TEAB, pH 8.0, and the sample was incubated at 37 °C for 4 h. Peptides were eluted with 80 μL of 50 mM TEAB, followed by 80 μL of 0.2% formic acid, and finally 80 μL of 50% acetonitrile, 0.2% formic acid. The combined peptide solution was then dried in a speed vac and resuspended in 2% acetonitrile, 0.1% formic acid, 97.9% water and placed in an autosampler vial.
(§3) Samples were analyzed by nanoLC-MS/MS (nanoRSLC, Thermo Fisher) using an Aurora series (Ion Opticks) reversed phase HPLC column (25 cm length × 75 µm inner diameter) and directly injected to an Orbitrap Eclipse (Thermo Fisher) using a 120 min gradient (mobile phase A = 0.1% formic acid, mobile phase B = 99.9% acetonitrile with 0.1% formic acid; hold 2% B for 5 min, 2–6% B in 0.1 min, 6–25% in 100 min, 25–50% in 15 min) at a flow rate of 350 nL/min. Eluted peptide ions were analyzed using a data-dependent acquisition (DDA) method with resolution settings of 120,000 and 15,000 (at m/z 200) for MS1 and MS2 scans, respectively. DDA-selected peptides were fragmented using stepped high energy collisional dissociation (27, 32, and 37%).
(§4) The data of AP-MS were analyzed as a previously described method with minor modifications. Briefly, the raw MS files were searched with MaxQuant software (version 1.6.1.1, www.maxquant.org)[56] against the UniProt human protein database (www.uniprot.org) concatenated with common contaminants and the decoy database. The mass tolerance for precursor ions was set to 20 ppm and 4.5 ppm for the first and main search, respectively. The cysteine carbamidomethylation was set as fixed modification and methionine oxidation and N-terminal acetylation as variable modifications. Enzyme specificity was set to trypsin and a maximum missed cleavage was set as 2. The 1% false discovery rate (FDR) at both peptide and protein levels was applied for the analysis. Relative protein quantification was based on the label-free quantification incorporated in the MaxQuant software. The iBAQ intensity of proteins was obtained for the control and experimental samples. The missing iBAQ intensity was replaced by a random number, which was calculated from a normal distribution with a width of 0.3 and a downshift of 1.8 defined by Perseus software (version 1.6.5.0). The P-value was calculated by performing two-sample Student’s t-test. […]

Assay [2] has as its target T2, proteins displaced from immobilized biotin-Cmpd 1 pulldowns (U2OS cell lysate) (Homo sapiens, UniProt Q96AE4).
T2 construct: endogenous in cells; host or cells: U2OS
To be noted: GN=FUBP1 (Q96AE4). The protocol: as §1, §2, §3, §4

In assay [3] the target is T3, proteins displaced from immobilized biotin-Cmpd 1 pulldowns (U2OS cell lysate) (Homo sapiens, UniProt P09493).
T3 construct: endogenous in cells; host or cells: U2OS
To be noted: GN=TPM1 (H0YKX5). On the procedure: as §1, §2, §3, §4

The target of assay [4] is T4, proteins displaced from immobilized biotin-Cmpd 1 pulldowns (U2OS cell lysate) (Homo sapiens, UniProt Q9Y3C1).
T4 construct: endogenous in cells; host or cells: U2OS
To be noted: GN=NOP16 (Q9Y3C1). On the procedure: as §1, §2, §3, §4

Assay [5] addresses T5, proteins displaced from immobilized biotin-Cmpd 1 pulldowns (U2OS cell lysate) (Homo sapiens, UniProt P20700).
T5 construct: endogenous in cells; host or cells: U2OS
To be noted: GN=LMNB1 (P20700). On the procedure: as §1, §2, §3, §4

The target of assay [6] is T6, proteins displaced from immobilized biotin-Cmpd 1 pulldowns (U2OS cell lysate) (Homo sapiens, UniProt Q01105).
T6 construct: endogenous in cells; host or cells: U2OS
To be noted: GN=SET (Q01105). On the procedure:
as §1, §2, §3, §4

Assay [7] addresses T7, proteins displaced from immobilized biotin-Cmpd 1 pulldowns (U2OS cell lysate) (Homo sapiens, UniProt Q15050).
T7 construct: endogenous in cells; host or cells: U2OS
To be noted: GN=RRS1 (Q15050). The protocol:
as §1, §2, §3, §4

The target in assay [8] is T8, proteins displaced from immobilized biotin-Cmpd 1 pulldowns (U2OS cell lysate) (Homo sapiens, UniProt P06493).
T8 construct: endogenous in cells; host or cells: U2OS
To be noted: GN=CDK1 (P06493). The protocol: as §1, §2, §3, §4

Assay [9] has as its target T9, proteins displaced from immobilized biotin-Cmpd 1 pulldowns (U2OS cell lysate) (Homo sapiens, UniProt Q9NUQ6).
T9 construct: endogenous in cells; host or cells: U2OS
To be noted: GN=SPATS2L (Q9NUQ6). The protocol: as §1, §2, §3, §4

For assay [10], the target named is T10, proteins displaced from immobilized biotin-Cmpd 1 pulldowns (U2OS cell lysate) (Homo sapiens, UniProt Q9BYD6).
T10 construct: endogenous in cells; host or cells: U2OS
To be noted: GN=MRPL1 (Q9BYD6). The protocol:
as §1, §2, §3, §4

T8 sequence (P06493 whole entry): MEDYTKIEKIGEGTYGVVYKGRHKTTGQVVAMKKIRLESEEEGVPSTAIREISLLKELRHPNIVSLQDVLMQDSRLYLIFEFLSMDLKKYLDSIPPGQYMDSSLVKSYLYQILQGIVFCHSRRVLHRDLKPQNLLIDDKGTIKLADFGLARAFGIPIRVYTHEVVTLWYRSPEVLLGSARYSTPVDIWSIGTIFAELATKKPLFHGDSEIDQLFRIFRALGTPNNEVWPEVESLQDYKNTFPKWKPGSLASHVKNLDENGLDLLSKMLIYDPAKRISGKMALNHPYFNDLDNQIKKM
T6 sequence (Q01105 whole entry): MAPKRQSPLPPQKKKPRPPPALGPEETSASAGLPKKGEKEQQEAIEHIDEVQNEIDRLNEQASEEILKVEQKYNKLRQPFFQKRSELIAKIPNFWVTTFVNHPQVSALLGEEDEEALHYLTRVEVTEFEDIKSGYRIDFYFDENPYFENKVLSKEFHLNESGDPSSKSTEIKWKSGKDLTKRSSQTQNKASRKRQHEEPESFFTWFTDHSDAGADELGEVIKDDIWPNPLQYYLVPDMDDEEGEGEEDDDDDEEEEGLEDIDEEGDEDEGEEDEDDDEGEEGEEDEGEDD
T4 sequence (Q9Y3C1 whole entry): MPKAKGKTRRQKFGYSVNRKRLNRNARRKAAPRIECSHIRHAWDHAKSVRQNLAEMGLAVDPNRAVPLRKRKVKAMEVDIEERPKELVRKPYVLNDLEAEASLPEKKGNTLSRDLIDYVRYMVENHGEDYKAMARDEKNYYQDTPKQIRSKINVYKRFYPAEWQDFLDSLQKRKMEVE
T2 sequence (Q96AE4 whole entry): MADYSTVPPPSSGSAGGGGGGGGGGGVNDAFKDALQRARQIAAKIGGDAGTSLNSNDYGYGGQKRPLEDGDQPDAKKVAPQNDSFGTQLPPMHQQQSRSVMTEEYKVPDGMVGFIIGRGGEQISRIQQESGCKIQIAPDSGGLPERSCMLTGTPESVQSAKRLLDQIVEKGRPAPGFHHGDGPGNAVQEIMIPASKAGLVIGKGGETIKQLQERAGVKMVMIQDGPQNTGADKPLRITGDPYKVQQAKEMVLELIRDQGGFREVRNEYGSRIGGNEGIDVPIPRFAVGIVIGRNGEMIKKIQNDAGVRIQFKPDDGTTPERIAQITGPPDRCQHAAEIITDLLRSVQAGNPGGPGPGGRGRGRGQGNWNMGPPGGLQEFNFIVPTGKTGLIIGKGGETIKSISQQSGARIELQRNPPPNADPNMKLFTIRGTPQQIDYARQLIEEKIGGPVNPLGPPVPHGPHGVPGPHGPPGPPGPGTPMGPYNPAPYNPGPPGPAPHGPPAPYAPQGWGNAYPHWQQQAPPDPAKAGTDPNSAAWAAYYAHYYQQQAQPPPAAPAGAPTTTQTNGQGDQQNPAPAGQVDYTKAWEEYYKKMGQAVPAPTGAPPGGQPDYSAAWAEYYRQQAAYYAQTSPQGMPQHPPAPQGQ
T7 sequence (Q15050 whole entry): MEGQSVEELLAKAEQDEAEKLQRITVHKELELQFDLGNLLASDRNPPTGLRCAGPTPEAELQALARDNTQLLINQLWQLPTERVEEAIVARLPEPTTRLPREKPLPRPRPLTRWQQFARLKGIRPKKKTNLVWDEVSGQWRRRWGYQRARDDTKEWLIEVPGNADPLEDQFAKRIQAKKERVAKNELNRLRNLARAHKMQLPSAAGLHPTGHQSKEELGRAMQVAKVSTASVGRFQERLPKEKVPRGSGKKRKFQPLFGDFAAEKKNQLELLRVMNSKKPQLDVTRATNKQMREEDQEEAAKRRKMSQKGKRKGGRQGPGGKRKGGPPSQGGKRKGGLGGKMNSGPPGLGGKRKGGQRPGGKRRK
T9 sequence (Q9NUQ6 whole entry): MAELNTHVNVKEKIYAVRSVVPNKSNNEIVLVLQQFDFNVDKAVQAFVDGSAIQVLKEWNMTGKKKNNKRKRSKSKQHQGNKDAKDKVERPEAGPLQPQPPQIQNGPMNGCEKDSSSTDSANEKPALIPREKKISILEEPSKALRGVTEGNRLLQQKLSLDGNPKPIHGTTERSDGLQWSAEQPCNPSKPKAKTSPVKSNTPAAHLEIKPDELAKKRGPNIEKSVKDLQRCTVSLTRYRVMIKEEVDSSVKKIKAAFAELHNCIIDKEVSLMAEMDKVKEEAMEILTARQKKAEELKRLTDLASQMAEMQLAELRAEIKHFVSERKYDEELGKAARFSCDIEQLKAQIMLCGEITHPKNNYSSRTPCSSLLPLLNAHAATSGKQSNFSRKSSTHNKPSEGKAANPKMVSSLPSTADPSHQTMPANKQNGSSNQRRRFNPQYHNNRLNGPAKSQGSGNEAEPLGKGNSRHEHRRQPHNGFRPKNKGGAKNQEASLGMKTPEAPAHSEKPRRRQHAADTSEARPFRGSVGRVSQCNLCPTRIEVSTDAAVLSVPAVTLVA
T5 sequence (P20700 whole entry): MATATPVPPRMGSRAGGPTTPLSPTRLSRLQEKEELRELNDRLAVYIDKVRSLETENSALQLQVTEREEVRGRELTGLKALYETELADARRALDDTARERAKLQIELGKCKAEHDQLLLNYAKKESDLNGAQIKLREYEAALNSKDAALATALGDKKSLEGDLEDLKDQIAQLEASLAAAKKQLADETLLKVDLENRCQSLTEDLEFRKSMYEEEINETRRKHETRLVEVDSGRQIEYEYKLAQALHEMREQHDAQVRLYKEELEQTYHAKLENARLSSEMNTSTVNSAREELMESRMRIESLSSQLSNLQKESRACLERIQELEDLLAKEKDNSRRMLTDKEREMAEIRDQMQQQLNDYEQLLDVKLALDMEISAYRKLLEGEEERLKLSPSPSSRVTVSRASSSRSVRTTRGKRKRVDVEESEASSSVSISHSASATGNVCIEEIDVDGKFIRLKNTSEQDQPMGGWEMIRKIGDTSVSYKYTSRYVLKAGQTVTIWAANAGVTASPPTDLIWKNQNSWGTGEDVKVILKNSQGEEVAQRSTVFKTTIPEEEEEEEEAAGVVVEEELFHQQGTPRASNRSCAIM
T3 sequence (P09493 whole entry): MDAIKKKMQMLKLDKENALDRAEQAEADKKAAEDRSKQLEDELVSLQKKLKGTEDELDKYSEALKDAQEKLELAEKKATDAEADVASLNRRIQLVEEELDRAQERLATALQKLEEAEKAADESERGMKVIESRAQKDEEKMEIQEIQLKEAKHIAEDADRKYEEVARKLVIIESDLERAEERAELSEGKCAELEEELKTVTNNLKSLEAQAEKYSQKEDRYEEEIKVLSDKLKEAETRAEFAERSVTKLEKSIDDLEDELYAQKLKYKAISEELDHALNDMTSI

Consider `Cn1c2c(c(=N)c3c1CCC3)CCC2` [Compound 1, 4-methyl-2,3,4,5,6,7-hexahydrodicyclopenta[b,e]pyridin-8(1H)-imine], for which the Difference was 1.872 in assay [1] (Cmpd minus DMSO, -LOG(P-value) 0.726003); 1.187 in [2] (Cmpd minus DMSO, -LOG(P-value) 0.798774); -0.7334 in [3] (Cmpd minus DMSO, -LOG(P-value) 1.96752); 3.378 in assay [4] (Cmpd minus DMSO, -LOG(P-value) 0.713884); 0.6571 in [5] (Cmpd minus DMSO, -LOG(P-value) 0.765149); 4.792 in assay [6] (Cmpd minus DMSO, -LOG(P-value) 0.992199). In addition, the Difference in assay [7] (Cmpd minus DMSO, -LOG(P-value) 0.720694) is recorded as 2.281; in assay [8] (Cmpd minus DMSO, -LOG(P-value) 0.868994) it was -0.7208; in [9] (Cmpd minus DMSO, -LOG(P-value) 0.875271), 3.1666; in [10] (Cmpd minus DMSO, -LOG(P-value) 1.01314) it was 3.091. The “iBAQ Cmpd” value was 17.5569 and 16.2606 and 16.9957 in assay [1] (replicates 1-3); 19.58 and 17.8353 and 18.5748 in assay [2] (replicates 1-3); 21.937 and 22.2825 and 22.2241 in assay [3] (replicates 1-3); 19.623 and 19.0936 and 18.8692 in assay [4] (replicates 1-3); 20.5307 and 20.0559 and 19.5746 in assay [5] (replicates 1-3); 21.3063 and 22.1737 and 20.6451 in [6] (replicates 1-3). Further, the “iBAQ Cmpd” value in assay [7] (replicates 1-3) was 15.4548 and 18.445 and 19.3119; in [8] (replicates 1-3) it was 20.3513 and 19.7871 and 19.2381; in assay [9] (replicates 1-3), 21.4367 and 18.8839 and 18.3449; in [10] (replicates 1-3) it was 18.4151 and 17.6221 and 18.5153.
